Data taken from paper PMC8151276, “An Integrated Approach toward NanoBRET Tracers for Analysis of GPCR Ligand Engagement” (Molecules, 2021).

Columns and labels:
Format in all cases: binding
[1] = target: T1, FZD7 (Homo sapiens, UniProt O75084); assay: NanoBRET screen HiBiT-FZD7 in HEK293; conditions: FZD7
T1 construct: purchased Promega (in-house HiBiT-GPCR construct library, NanoBRET)
Method: (§1) Each tracer candidate was screened across the entire library of HiBiT-GPCR constructs using NanoBRET as the detection modality. As depicted in Figure 4A, the specificity of interactions was evaluated through decrease in BRET due to competitive displacement of a bound tracer by excess parental compound. Each tracer was analyzed for binding to each HiBiT-GPCR fusion in the absence and in the presence of competing parental compound. Briefly, HEK293 cells were transfected with HiBiT-GPCR constructs diluted into promoterless DNA to reduce expression and maximize translocation to the cell surface. Each tracer candidate was then screened at concentrations of 1 μM and 0.1 μM across cells expressing these fusions. Cells were treated for 1.5 h with tracer either alone or in the presence of 20 μM competing parental compound (i.e., control). BRET was measured upon addition of purified LgBiT and subsequent complementation with HiBiT genetically fused to a GPCR. The specificity of interactions was assessed through a decrease in BRET signal due to competitive displacement of the bound tracer. To further gauge the robustness of these interactions, the fold response over the control (i.e., BRETtracer/BRETcontrol) was calculated. We chose a 1.5-fold response, which translates to ≥7-fold signal over noise as the minimal threshold required to score an interaction as positive. […]. Below we highlight the screening results obtained for our exemplary fluorescent tracers based on Clozapine, Amitriptyline and AZD1283.
(§2) HiBiT-GPCR DNA constructs were diluted in 10 mM Tris pH 8 to a final concentration of 0.01 μg/μL, arrayed in 96-well plates and stored at −20 °C. For transfection, HEK293 cells were suspended in Opti-MEM (without phenol red) supplemented with 2% fetal bovine serum (Seradigm) and 100 units/mL penicillin–streptomycin (Gibco) at a final concentration of 220,000 cells/mL and dispensed into white 96-well plates at 90 μL/well. Subsequent transfections and screens were carried using an Agilent Bravo Automated Liquid Handling Platform. First, the 96-well HiBiT DNA arrays were diluted 25-fold in Opti-MEM (without serum or phenol red) to a final concentration of 0.0004 μg/μL and 20 μL of the diluted DNAs were transferred into new 96-well plates. Next, promoterless carrier DNA (1 μg/μL) was diluted 25-fold (0.04 μg/μL) and then dispensed into the diluted arrays at 20 μL/well. Following brief mixing, Viafect transfection reagent (Promega) diluted 16-fold into Opti-MEM was dispensed into the plates at 40 μL/well. After mixing by pipetting, plates were incubated for 10 min on the pipetting station deck. The DNA-transfection reagent complexes were then added to plates containing cells. To facilitate the screen, 10 μL of DNA-transfection reagent complexes were added in duplicates to the top 4 and bottom 4 rows, resulting in two identical 48-well arrays per plate. Plates with transfected cells were incubated for 18–20 h at 37 °C/5% CO2. A screen of each tracer across the entire library using two different concentrations requires duplicate plates of transfected cells. Depending on the number of tracers being screened, transfections can be scaled up using the same ratios. The next day, for each tracer, four 20× screening solutions in tracer dilution buffer (Promega) were prepared: two duplicates at final concentration of 20 μM and two duplicates at a final concentration of 2 μM. A competing unmodified compound was added to one of each duplicate at a final concentration of 400 μM. The four resulting solutions were diluted 4-fold in Opti-MEM without serum or phenol red to generate 5× solutions (5 µM and 0.5 µM tracer +/− 100 μM competing compound). To screen the library, a BioTek MultiFlo FX liquid dispenser was used to dispense 22.5 µL of tracer solution to the top 4 rows and 22.5 µL tracer + competing compound solution to the 4 bottom rows. Plates were briefly mixed on an orbital shaker and incubated for 1.5 h at room temperature. […]

[2] = target: T2, F2RL3 (Homo sapiens, UniProt Q96RI0); assay: NanoBRET screen HiBiT-F2RL3 in HEK293; conditions: F2RL3
T2 construct: purchased Promega (in-house HiBiT-GPCR construct library, NanoBRET)
T2 sequence (Q96RI0 18-385): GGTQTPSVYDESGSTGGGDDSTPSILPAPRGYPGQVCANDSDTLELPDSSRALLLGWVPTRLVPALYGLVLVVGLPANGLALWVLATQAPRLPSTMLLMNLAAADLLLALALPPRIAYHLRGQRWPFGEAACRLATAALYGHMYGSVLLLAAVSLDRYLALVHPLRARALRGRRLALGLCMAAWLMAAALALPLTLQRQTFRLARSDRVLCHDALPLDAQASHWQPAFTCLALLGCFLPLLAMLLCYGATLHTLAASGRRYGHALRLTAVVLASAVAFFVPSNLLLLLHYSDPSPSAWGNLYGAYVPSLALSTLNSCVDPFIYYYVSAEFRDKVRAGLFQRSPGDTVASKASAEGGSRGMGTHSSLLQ
Method: as §1, §2

[3] = target: T3, P2RY13 (Homo sapiens, UniProt Q9BPV8); assay: NanoBRET screen HiBiT-P2RY13 in HEK293; conditions: P2RY13
T3 construct: purchased Promega (in-house HiBiT-GPCR construct library, NanoBRET)
T3 sequence (Q9BPV8 1-354): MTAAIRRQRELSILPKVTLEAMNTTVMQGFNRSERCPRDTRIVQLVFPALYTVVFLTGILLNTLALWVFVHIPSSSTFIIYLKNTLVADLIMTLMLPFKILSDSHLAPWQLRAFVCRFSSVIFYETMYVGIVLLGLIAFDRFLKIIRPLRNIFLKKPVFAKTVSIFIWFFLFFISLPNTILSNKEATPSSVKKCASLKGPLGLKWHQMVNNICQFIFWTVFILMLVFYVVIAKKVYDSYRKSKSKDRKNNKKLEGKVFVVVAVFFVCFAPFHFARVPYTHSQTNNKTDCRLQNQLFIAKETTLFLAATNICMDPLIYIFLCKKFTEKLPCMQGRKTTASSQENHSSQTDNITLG
Method: as §1, §2

[4] = target: T4, OPRL1 (Homo sapiens, UniProt P41146); assay: NanoBRET screen HiBiT-OPRL1 in HEK293; conditions: OPRL1
T4 construct: purchased Promega (in-house HiBiT-GPCR construct library, NanoBRET)
T4 sequence (P41146 whole entry): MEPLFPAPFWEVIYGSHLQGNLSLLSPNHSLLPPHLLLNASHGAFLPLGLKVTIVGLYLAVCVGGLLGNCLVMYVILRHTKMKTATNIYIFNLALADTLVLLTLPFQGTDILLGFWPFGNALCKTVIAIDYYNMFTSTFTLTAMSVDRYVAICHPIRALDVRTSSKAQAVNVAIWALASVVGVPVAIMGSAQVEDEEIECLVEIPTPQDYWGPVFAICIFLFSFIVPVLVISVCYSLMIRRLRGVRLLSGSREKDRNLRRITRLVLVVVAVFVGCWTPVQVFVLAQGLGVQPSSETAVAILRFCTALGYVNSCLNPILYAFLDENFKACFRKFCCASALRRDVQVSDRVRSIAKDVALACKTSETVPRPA
Method: as §1, §2

[5] = target: T5, FPR1 (Homo sapiens, UniProt P21462); assay: NanoBRET screen HiBiT-FPR1 in HEK293; conditions: FPR1
T5 construct: purchased Promega (in-house HiBiT-GPCR construct library, NanoBRET)
T5 sequence (P21462 1-350): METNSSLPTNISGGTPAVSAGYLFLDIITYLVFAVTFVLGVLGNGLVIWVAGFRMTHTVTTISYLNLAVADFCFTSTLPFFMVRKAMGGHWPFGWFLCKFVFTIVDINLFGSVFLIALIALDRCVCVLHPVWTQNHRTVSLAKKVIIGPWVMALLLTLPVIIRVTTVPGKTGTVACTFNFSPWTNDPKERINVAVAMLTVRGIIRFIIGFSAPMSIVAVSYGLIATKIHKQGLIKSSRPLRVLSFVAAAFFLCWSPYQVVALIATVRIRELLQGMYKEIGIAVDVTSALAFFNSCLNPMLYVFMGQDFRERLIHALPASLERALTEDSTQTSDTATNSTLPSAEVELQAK
Method: as §1, §2

SMILES	NanoBRET Fold Response ([1]; tracer 0.1μM)	NanoBRET Fold Response ([1]; tracer 1μM)	NanoBRET Fold Response ([2]; tracer 0.1μM)	NanoBRET Fold Response ([2]; tracer 1μM)	NanoBRET Fold Response ([3]; tracer 0.1μM)	NanoBRET Fold Response ([3]; tracer 1μM)	NanoBRET Fold Response ([4]; tracer 0.1μM)	NanoBRET Fold Response ([4]; tracer 1μM)	NanoBRET Fold Response ([5]; tracer 0.1μM)	NanoBRET Fold Response ([5]; tracer 1μM)	NanoBRET Fold Response ([1]; 0.1μM)	NanoBRET Fold Response ([1]; 1μM)	NanoBRET Fold Response ([2]; 0.1μM)	NanoBRET Fold Response ([2]; 1μM)	NanoBRET Fold Response ([3]; 0.1μM)	NanoBRET Fold Response ([3]; 1μM)	NanoBRET Fold Response ([4]; 0.1μM)	NanoBRET Fold Response ([4]; 1μM)	NanoBRET Fold Response ([5]; 0.1μM)	NanoBRET Fold Response ([5]; 1μM)
O=C(CCc1ccc2n1[B-](F)(F)[N+]1=C(c3ccc[nH]3)C=CC1=C2)NCc1ccc(C(=O)NCCOCCC(=O)N[C@@H]2CC[C@@]3(O)[C@H]4Cc5ccc(O)c6c5[C@@]3(CCN4CC3CC3)[C@H]2O6)cc1 [Naltrexone-3-NB590]	1.32	1.27	0.92	1.03	0.62	0.92	1.54	0.99	0.90	0.98	–	–	–	–	–	–	–	–	–	–
Cc1cc2c(s1)Nc1ccccc1N=C2N1CCN(CCCNC(=O)CCOCCOCCOCCOCCNC(=O)CCc2ccc3n2[B-](F)(F)[N+]2=C(c4ccc[nH]4)C=CC2=C3)CC1 [Olanzapine-a-2-NB590]	1.03	0.95	1.04	0.98	1.09	0.86	1.02	0.47	1.09	1.01	–	–	–	–	–	–	–	–	–	–
O=C(CCc1ccc2n1[B-](F)(F)[N+]1=C(c3ccc[nH]3)C=CC1=C2)NCc1ccc(C(=O)NCCOCCOCCNCC(O)COc2cccc3ccccc23)cc1 (centres unmarked) [Propranolol-3-NB590]	–	–	–	–	–	–	–	–	–	–	1.01	1.04	1.07	1.00	0.90	0.97	0.96	1.01	1.02	0.98
O=C(CCc1ccc2n1[B-](F)(F)[N+]1=C(c3ccc[nH]3)C=CC1=C2)NCCOCCOCCNC(=O)OCCOCCN1CCN(C2=Nc3ccccc3Sc3ccccc32)CC1 [Quetiapine-a-2-NB590]	1.04	0.91	1.09	0.84	0.98	0.95	0.90	1.00	1.05	0.92	–	–	–	–	–	–	–	–	–	–
Cc1nc2n(c(=O)c1CCN1CCC(c3noc4cc(F)ccc34)CC1)CCCC2OC(=O)NCCOCCOCCOCCOCCNC(=O)CCc1ccc2n1[B-](F)(F)[N+]1=C(c3ccc[nH]3)C=CC1=C2 (centres unmarked) [Risperidone-2-NB590]	0.98	1.04	0.98	0.97	1.03	0.90	0.97	0.96	0.97	0.91	–	–	–	–	–	–	–	–	–	–
